Results as given in PubChem BioAssay AID2060889 (Molecular Pharmacology Branch, DTP, NCI, 2025).

System: LG0567-F671-PDC complex spheroids viability
Experiment: Anticancer human tumor LG0567-F671-PDC patient-derived lung adenocarcinoma cell line growth inhibition [RAS]
Settings: for viability, T/C: stronger effect = lower value
Outline: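 Agents were tested in combination matrices in half-log decrements from a top concentration at or near clinical Cmax (10 microM if undetermined). Targets were multi-cell spheroids of tumour lines plus HUVEC and MSC stromal cells.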
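Further: spheroids exposed to compound for seven days before readout.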
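Wherever IC50 is given: luminescence signal used as a proxy for viable cells.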

In the case of `CC1(C)CCC(Nc2ncc(C(F)(F)F)c(-c3c[nH]c4c(P(C)(C)=O)c(C#N)ccc34)n2)CN1` (centres undefined), the viability, T/C (compound 0.003 µM) is reported as 61.7% [middle of 4 runs], the viability, T/C (compound 0.00949 µM) is reported as 58.9% [middle of 4 runs] and the viability, T/C (compound 0.03 µM) is reported as 58.4% [middle of 4 runs]. For the same molecule, the viability, T/C (compound 0.0949 µM) was 60.6% [middle of 4 runs] and the viability, T/C (compound 0.3 µM) was 58% [middle of 4 runs].
`O=C(c1ccc(F)c(F)c1Nc1ccc(I)cc1F)N1CC(O)([C@@H]2CCCCN2)C1` + C#Cc1c(F)ccc2cc(O)cc(-c3ncc4c(N5CC6CCC(C5)N6)nc(OCC56CCCN5CC(F)C6)nc4c3F)c12 showed an IC50 (curve of first compound, second compound 0.0316 µM) of 13.6 nM, an IC50 (curve of first compound, second compound 0.1 µM) of 8.46 nM and an IC50 (curve of first compound, second compound 0.316 µM) of 5.19 nM. For the same molecule, the IC50 (curve of first compound, second compound 1 µM) was less than 3.16 nM, the IC50 (curve of first compound, second compound 3.16 µM) was less than 3.16 nM and the IC50 (curve of first compound, second compound 10 µM) was less than 3.16 nM. For the same molecule, the viability, T/C (second compound 0.0316 µM, first compound 0.00316 µM) was 80.2%, the viability, T/C (second compound 0.0316 µM, first compound 0.01 µM) was 53.4% and the viability, T/C (second compound 0.0316 µM, first compound 0.0316 µM) was 37%. The viability, T/C (second compound 0.0316 µM, first compound 0.1 µM) was 23%, the viability, T/C (second compound 0.0316 µM, first compound 0.316 µM) was 10.1% and the viability, T/C (second compound 0.0316 µM, first compound 1 µM) was 3.93%. For the same molecule, the viability, T/C (second compound 0.1 µM, first compound 0.00316 µM) was 64.2%, the viability, T/C (second compound 0.1 µM, first compound 0.01 µM) was 45.9% and the viability, T/C (second compound 0.1 µM, first compound 0.0316 µM) was 35.4%. It also gave a viability, T/C (second compound 0.1 µM, first compound 0.1 µM) of 19.2%, a viability, T/C (second compound 0.1 µM, first compound 0.316 µM) of 10.7% and a viability, T/C (second compound 0.1 µM, first compound 1 µM) of 3.38%. For the same molecule, the viability, T/C (second compound 0.316 µM, first compound 0.00316 µM) was 52.8%, the viability, T/C (second compound 0.316 µM, first compound 0.01 µM) was 46.8% and the viability, T/C (second compound 0.316 µM, first compound 0.0316 µM) was 30.7%. The viability, T/C (second compound 0.316 µM, first compound 0.1 µM) was 17.1%, the viability, T/C (second compound 0.316 µM, first compound 0.316 µM) was 9.98% and the viability, T/C (second compound 0.316 µM, first compound 1 µM) was 3.87%. For the same molecule, the viability, T/C (second compound 1 µM, first compound 0.00316 µM) was 34.5%, the viability, T/C (second compound 1 µM, first compound 0.01 µM) was 28% and the viability, T/C (second compound 1 µM, first compound 0.0316 µM) was 21.3%. It also gave a viability, T/C (second compound 1 µM, first compound 0.1 µM) of 12.1%, a viability, T/C (second compound 1 µM, first compound 0.316 µM) of 6.87% and a viability, T/C (second compound 1 µM, first compound 1 µM) of 3.06%. It also gave a viability, T/C (second compound 3.16 µM, first compound 0.00316 µM) of 17.3%, a viability, T/C (second compound 3.16 µM, first compound 0.01 µM) of 14.1% and a viability, T/C (second compound 3.16 µM, first compound 0.0316 µM) of 16.4%. For the same molecule, the viability, T/C (second compound 3.16 µM, first compound 0.1 µM) was 7.89%, the viability, T/C (second compound 3.16 µM, first compound 0.316 µM) was 3.15% and the viability, T/C (second compound 3.16 µM, first compound 1 µM) was 2.12%. The viability, T/C (second compound 10 µM, first compound 0.00316 µM) was 10.5%, the viability, T/C (second compound 10 µM, first compound 0.01 µM) was 7.59% and the viability, T/C (second compound 10 µM, first compound 0.0316 µM) was 5.41%. For the same molecule, the viability, T/C (second compound 10 µM, first compound 0.1 µM) was 2.84%, the viability, T/C (second compound 10 µM, first compound 0.316 µM) was 1.91% and the viability, T/C (second compound 10 µM, first compound 1 µM) was 1.49%.
For `CCn1c(-c2cccnc2C(C)OC)c2c3cc(ccc31)N1CCOC(CC(NC(=O)C(C(C)C)N(C)C(=O)C3(F)CCN(C(=O)C#CC(C)(C)N(C)C)CC3)C(=O)N3CCCC(N3)C(=O)OCC(C)(C)C2)C1` (centres undefined), the viability, T/C (compound 0.000949 µM) was 15.2% [middle of 8 runs], the viability, T/C (compound 0.003 µM) was 15% [middle of 8 runs] and the viability, T/C (compound 0.00949 µM) was 15.1% [middle of 7 runs]. For the same molecule, the viability, T/C (compound 0.03 µM) was 13.5% [middle of 8 runs], the viability, T/C (compound 0.0949 µM) was 12.2% [middle of 8 runs] and the viability, T/C (compound 0.3 µM) was 10.3% [middle of 8 runs]. The IC50 (compound alone, run of 08/20/2024) was less than 0.949 nM.
